B1: cryptogein (protein, UniProt P15570 21-118, looked up)
Beta-elicitin cryptogein: TACTATQQTAAYKTLVSILSDASFNQCSTDSGYSMLTAKALPTTAQYKLMCASTACNTMIKKIVTLNPPNCDLTVPTSGLVLNVYSYANGFSNKCSSL
notes: an elicitin derived from oomycete, Phytophthora cryptogea; trigger material (elicitor)

Tests used:
OsWRKY45 = settings: rice; cited from earlier work
[1] = system: salicylic acid-dependent defense pathway and jasmonic acid-dependent defense pathway; test: Defense gene expression (PR1, PDF1.2) in Arabidopsis seedlings, real-time RT-PCR; assay type: in vivo, Arabidopsis thaliana; settings: Arabidopsis seedlings on MS plates containing compound for 3 or 6 days (FIG. 2)
Experimental: (§1) Total RNA was isolated from plant cells using Trizol (Invitrogen, Carlsbad, Calif., USA) reagent in accordance with the manufacturer's protocol and quantified using a spectrophotometer. First-strand cDNA was synthesized from 3 μg total RNA with an oligo-dT primer and reverse transcriptase.
(§2) Real-time PCR was performed using an ABI PRISM 7300 sequence detection system (Applied Biosystems, Foster City, Calif., USA) with SYBR Green real-time PCR Master Mix (TOYOBO, Osaka, Japan) and the gene-specific primers. PCR amplification was performed with an initial denaturation at 95° C. for 10 min followed by 40 cycles of incubations at 95° C. for 15 s, 60° C. for 15 s, and 72° C. for 45 s. Relative mRNA abundances were calculated using the comparative Ct method. Actin or tubulin was used as an internal control. The following primers were used in the experiment.
Arabidopsis seedlings were grown on MS plate for 12 days and then the seedlings were transferred to MS plates containing chemical compounds. After grown for 3 or 6 days, the samples for RNA extraction were collected.

[2] = system: innate immunity in tobacco plant; test: Innate immunity gene expression (PR1a, PR1b) in tobacco seedlings after cryptogein; assay type: in vivo, Nicotiana tabacum; settings: 6 days on compound, cryptogein 2000 nM, 0, 1 and 24 h (FIG. 4)
Experimental: as §1, §2
Tobacco seedlings were grown on MS plate for 7 days and then the seedlings were transferred to MS plates containing chemical compounds. After grown for 6 days, cryptogein (2000 nM) was added to the medium and the samples for RNA extraction were collected at the indicated time (0, 1 and 24 h).

innate immunity in rice = test: Innate immunity gene expression (PBZ1, WRKY45) in rice seedlings after N-acetylchitoheptaose; assay type: in vivo, Oryza sativa; settings: 2 days on compound, [GlcNAc]7 10 μM, observed 24 hours after elicitor (FIG. 5)
[3] = system: Pseudomonas syringae pv tomato (Pst) DC3000; test: Pathogen infection assay in Arabidopsis thaliana (Col-0); assay type: in vivo; settings: Arabidopsis thaliana (Col-0) irrigated with compound for 5 days, dip inoculation with Pst DC3000, 3 days (FIG. 3)
Experimental: Arabidopsis thaliana (Col-0) were grown in sterilized potting soil (Kureha) in plastic pots (5 cm×5 cm×5 cm) inside a growth chamber under a 16 h-8 h light-dark regimen at 22° C. with 60% humidity. After grown for 3 weeks, plants were irrigated with chemical compounds for 5 days.
Pseudomonas syringae pv tomato (Pst) DC3000 was cultured in nutrient broth medium (Eiken Chemical) for 24 h at 28° C., and a bacterial suspension was prepared in 10 mM MgCl2 (2×10^5 colony-forming units per mL). Challenge inoculation was performed by dipping the plants in bacterial solution. After incubation for 3 days at 22° C., the leaves were harvested from the inoculated plants. Three to four leaves from different plants were combined, weighed, and then homogenized in 10 mM MgCl2; the homogenate was then plated on nutrient broth agar containing rifampicin (50 mg/L) at appropriate dilutions. After incubation for 2 days at 28° C., the number of rifampicin-resistant bacterial colonies was counted. More than six homogenized samples were prepared for each experiment.

tobacco leaves = test: Salicylic acid accumulation in tobacco leaves after cryptogein; assay type: in vivo; settings: tobacco leaves treated with 2,000 nM cryptogein; range from several thousand, varying with conditions
Experimental: In the case of tobacco BY-2 cells compared to normal tobacco plant, the salicylic acid accumulation level of untreated tobacco BY-2 cells is from 10 to 20 ng/g (fresh weight), while the salicylic acid accumulation level of untreated tobacco leaves is several hundred ng/g (fresh weight). When treated with 2,000 nM cryptogein, the salicylic acid accumulation level of treated tobacco BY-2 cells increases to a level of approximately from 100 to 150 ng/g (fresh weight), while the salicylic acid accumulation level of treated tobacco leaves increases to, though varying depending on conditions, a level in the range of from several thousand ng/g (fresh weight) to 10,000 ng/g (fresh weight).

| Molecule | activation of salicylic acid-dependent and jasmonic acid-dependent defense pathways [1] | enhancement of immune response after treatment with cryptogein [2] | also measured |
| --- | --- | --- | --- |
| c1ccc2snnc2c1 [BTH, benzothiadiazole] | – | – | time to upregulation of OsWRKY45 after treatment (OsWRKY45): ≤ 3 h |
| O=c1cc(N2CCNCC2)oc2c(-c3ccccc3)cccc12 [Compound 2, LY303511] | activated both the salicylic acid-dependent defense pathway and the jasmonic acid-dependent defense pathway | enhanced an immune response | – |
| Cn1cnc(=N)c2nc[nH]c21 [Compound 3, 3MA] | activated both the salicylic acid-dependent defense pathway and the jasmonic acid-dependent defense pathway | enhanced an immune response | enhancement of immune response after elicitor application (innate immunity in rice): enhanced an immune response; resistance to a plant disease [3]: effective in enhancing resistance to a plant disease |
| B1 | – | – | salicylic acid accumulation level (tobacco leaves): ≤ 10,000 ng/g (fresh weight) |

Reference: patent US9739767B2, “Method of screening for plant defense activators, plant defense activators, and method of enhancing immune response” (TOKYO UNIVERSITY OF SCIENCE FOUNDATION, priority 2010, dated 2017)
